According to ChEMBL document CHEMBL1201862, “PubChem BioAssay data set” (2004):
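48-hour exposure; five concentrations; linearly interpolated endpoints. GI50 = concentration required for 50% inhibition of growth.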 The source made the active and inactive calls. Rule as the data show it: active = GI50 up to about 1.1 µM and inactive = higher.

Legend:
Assay in all cases: NCI-60 cell line screen, 48 h
MOLT-4 = system: MOLT-4
SF-268 = system: SF-268
HCC 2998 = system: HCC 2998
NCI-H460 = system: NCI-H460
COLO 205 = system: COLO 205
HL-60 = system: HL-60
SF-295 = system: SF-295
RPMI-8226 = system: RPMI-8226
SN12C = system: SN12C
UO-31 = system: UO-31
SK-MEL-28 = system: SK-MEL-28
NCI-H522 = system: NCI-H522
UACC-62 = system: UACC-62
NCI-H226 = system: NCI-H226
EKVX = system: EKVX
HCT-15 = system: HCT-15
IGROV-1 = system: IGROV-1

SMILES	GI50 (MOLT-4)	GI50 (SF-268)	GI50 (HCC 2998)	GI50 (NCI-H460)	GI50 (COLO 205)	GI50 (HL-60)	GI50 (SF-295)	GI50 (RPMI-8226)	GI50 (SN12C)	GI50 (UO-31)	GI50 (SK-MEL-28)	GI50 (NCI-H522)	GI50 (UACC-62)	GI50 (NCI-H226)	GI50 (EKVX)	GI50 (HCT-15)	GI50 (IGROV-1)
O=C(CC(=O)c1ccccc1)CC(O)(c1ccccc1)c1ccccc1	1.88 µM (inactive)	6.9 µM (inactive)	10.6 µM (inactive)	2.33 µM (inactive)	10.5 µM (inactive)	2.01 µM (inactive)	4.42 µM (inactive)	4.05 µM (inactive)	4.99 µM (inactive)	5.7 µM (inactive)	13.1 µM (inactive)	3.12 µM (inactive)	3.21 µM (inactive)	3.87 µM (inactive)	6.1 µM (inactive)	4.89 µM	
O=C1c2ccccc2CCCCCCCCCCC12OCCCO2	17.7 µM (inactive)	11.8 µM (inactive)	25.4 µM (inactive)	26.4 µM (inactive)	19.2 µM (inactive)	16 µM (inactive)	34.7 µM (inactive)	15.5 µM (inactive)	55 µM (inactive)	79.3 µM (inactive)	55.8 µM (inactive)	24.5 µM (inactive)	82.2 µM (inactive)	35.6 µM (inactive)		25.8 µM	41.4 µM (inactive)
CN(C)CC1(Cc2ccccc2)CC/C(=C\c2ccccc2)C1=O (stereo unspecified)	24 µM (inactive)	61 µM (inactive)	19.9 µM (inactive)	28.2 µM (inactive)	32.9 µM (inactive)	20.4 µM (inactive)	62.2 µM (inactive)	23.9 µM (inactive)	69.2 µM (inactive)	47.8 µM (inactive)	> 100 µM (inactive)	15.2 µM (inactive)	15.1 µM (inactive)	92.9 µM (inactive)		19.8 µM	47.8 µM (inactive)
CC(=O)OCCOCNC(=S)N/N=C(\C)c1cnc2ccccc2n1	28.6 µM (inactive)	10.4 µM (inactive)	32.7 µM (inactive)	27 µM (inactive)	20.1 µM (inactive)	15.9 µM (inactive)	57.9 µM (inactive)	47.8 µM (inactive)	50.4 µM (inactive)	41.5 µM (inactive)	43.6 µM (inactive)	21.9 µM (inactive)	14.2 µM (inactive)	36.4 µM (inactive)	8.53 µM (inactive)	34 µM	42 µM (inactive)
C/N=c1\ss/c(=N\C(=S)N(C)C)n1-c1ccccc1	> 100 µM (inactive)	34 µM (inactive)	> 100 µM (inactive)	> 100 µM (inactive)	> 100 µM (inactive)	> 100 µM (inactive)	> 75.5 µM (inactive)	> 100 µM (inactive)	> 100 µM (inactive)	> 55.7 µM (inactive)	> 100 µM (inactive)	9.14 µM (inactive)	> 22.9 µM (inactive)	> 100 µM (inactive)	> 100 µM (inactive)	> 100 µM	97.7 µM (inactive)
CC(C)OC(=O)c1cc(NC(=O)C(C)(C)C)c(F)cc1Cl	> 100 µM (inactive)	> 100 µM (inactive)	> 100 µM (inactive)	> 100 µM (inactive)	> 100 µM (inactive)	62.5 µM (inactive)	> 100 µM (inactive)	> 100 µM (inactive)	> 100 µM (inactive)	> 100 µM (inactive)	> 100 µM (inactive)	> 100 µM (inactive)	> 100 µM (inactive)	> 100 µM (inactive)	> 100 µM (inactive)	> 100 µM	> 100 µM (inactive)
O=c1cccccc1NCCCCCCNc1cccccc1=O	> 100 µM (inactive)	> 100 µM (inactive)	> 100 µM (inactive)	> 100 µM (inactive)	> 100 µM (inactive)	> 100 µM (inactive)	> 100 µM (inactive)	> 100 µM (inactive)	> 100 µM (inactive)	> 100 µM (inactive)	> 100 µM (inactive)	> 100 µM (inactive)	> 100 µM (inactive)	> 100 µM (inactive)	> 100 µM (inactive)	> 100 µM	> 100 µM (inactive)
